Data reported in patent US10550142B2, “Quercetin-based compound” (AMOREPACIFIC CORPORATION, priority 2016, dated 2020).

Tested on: skin
Experiment: Cumulative skin irritation test, HRIPT (human repeated insult patch test)
Format: in vivo
Design: key to skin reactivity (ICDRG criteria): −: Negative (no reaction); ±: Suspicious or slight erythema, etc.; +: Weak reaction (not accompanied by vesicles), erythema, papules; ++: Severe reaction (accompanied by vesicles), erythema, papules, vesicles; +++: Strong reaction, bullae
Conditions: for Number of subjects showing ±, + or ++ reactivity 1st: 1st patch; for Number of subjects showing ±, + or ++ reactivity 2nd: 2nd patch; for Number of subjects showing ±, + or ++ reactivity 3rd: 3rd patch; for Number of subjects showing ±, + or ++ reactivity 4th: 4th patch; for Number of subjects showing ±, + or ++ reactivity 5th: 5th patch; for Number of subjects showing ±, + or ++ reactivity 6th: 6th patch; for Number of subjects showing ±, + or ++ reactivity 7th: 7th patch; for Number of subjects showing ±, + or ++ reactivity 8th: 8th patch; for Number of subjects showing ±, + or ++ reactivity 9th: 9th patch; for Average reactivity: less than 3 = safe
Procedure: HRIPT (human repeated insult patch test) was performed to evaluate the cumulative skin irritation of quercetin 3-O-[3-O″-(E)-p-coumaroyl][β-D-glucopyranosyl-(1→3)-O-α-L-rhamnopyranosyl-(1→6)-O-β-D-glucopyranoside] and quercetin 3-O-[3-O″-(E)-p-coumaroyl][α-L-rhamnopyranosyl-(1→6)-O-β-D-glucopyranoside] and determine the range of concentration applicable to the skin. Specifically, 15 healthy adult subjects were randomly selected, and 20 μl of a test composition (composition for the skin including an emulsifier, a stabilizer, purified water, etc. in addition to each of the above compounds) containing 0.5% by weight, 1% by weight or 3% by weight of each of the compounds was dropped into each chamber (IQ chamber, Epitest Ltd, Finland) The patch was applied to the upper right side of the back of the subject, and after 24 hours from the application, it was replaced with a new patch. In this way, a total of 9 patches were applied, 3 times a week for 3 weeks. The skin reaction was checked before and after application of each patch. The skin reaction was checked until after 48 hours from the removal of the final patch, and the average reactivity was calculated. The skin reaction was evaluated according to the criteria of the International Contact Dermatitis Research Group (ICDRG). In the above table, “novel substance 31” denotes quercetin 3-O-[3-O″-(E)-p-coumaroyl][β-D-glucopyranosyl-(1→3)-O-α-L-rhamnopyranosyl-(1→6)-O-β-D-glucopyranoside], and “novel substance 32” denotes quercetin 3-O-[3-O″-(E)-p-coumaroyl][α-L-rhamnopyranosyl-(1→6)-O-β-D-glucopyranoside.

[1] = 0.5% by weight, line 1 of 3 (±)
[2] = 0.5% by weight, line 2 of 3 (+)
[3] = 0.5% by weight, line 3 of 3 (++)

SMILES: CC1OC(OCC2OC(Oc3c(-c4ccc(O)c(O)c4)oc4cc(O)cc(O)c4c3=O)C(O)C(OC(=O)/C=C/c3ccc(O)cc3)C2O)C(O)C(OC2OC(CO)C(O)C(O)C2O)C1O [Novel substance 31, quercetin 3-O-[3-O″-(E)-p-coumaroyl][β-D-glucopyranosyl-(1→3)-O-α-L-rhamnopyranosyl-(1→6)-O-β-D-glucopyranoside]]
- Number of subjects showing ±, + or ++ reactivity 1st [1]: 0 number of persons
- Number of subjects showing ±, + or ++ reactivity 1st [2]: 0 number of persons
- Number of subjects showing ±, + or ++ reactivity 1st [3]: 0 number of persons
- Number of subjects showing ±, + or ++ reactivity 2nd [1]: 0 number of persons
- Number of subjects showing ±, + or ++ reactivity 2nd [2]: 0 number of persons
- Number of subjects showing ±, + or ++ reactivity 2nd [3]: 0 number of persons
- Number of subjects showing ±, + or ++ reactivity 3rd [1]: 0 number of persons
- Number of subjects showing ±, + or ++ reactivity 3rd [2]: 0 number of persons
- Number of subjects showing ±, + or ++ reactivity 3rd [3]: 0 number of persons
- Number of subjects showing ±, + or ++ reactivity 4th [1]: 0 number of persons
- Number of subjects showing ±, + or ++ reactivity 4th [2]: 0 number of persons
- Number of subjects showing ±, + or ++ reactivity 4th [3]: 0 number of persons
- Number of subjects showing ±, + or ++ reactivity 5th [1]: 0 number of persons
- Number of subjects showing ±, + or ++ reactivity 5th [2]: 0 number of persons
- Number of subjects showing ±, + or ++ reactivity 5th [3]: 0 number of persons
- Number of subjects showing ±, + or ++ reactivity 6th [1]: 0 number of persons
- Number of subjects showing ±, + or ++ reactivity 6th [2]: 0 number of persons
- Number of subjects showing ±, + or ++ reactivity 6th [3]: 0 number of persons
- Number of subjects showing ±, + or ++ reactivity 7th [1]: 0 number of persons
- Number of subjects showing ±, + or ++ reactivity 7th [2]: 0 number of persons
- Number of subjects showing ±, + or ++ reactivity 7th [3]: 0 number of persons
- Number of subjects showing ±, + or ++ reactivity 8th [1]: 0 number of persons
- Number of subjects showing ±, + or ++ reactivity 8th [2]: 0 number of persons
- Number of subjects showing ±, + or ++ reactivity 8th [3]: 0 number of persons
- Number of subjects showing ±, + or ++ reactivity 9th [1]: 0 number of persons
- Number of subjects showing ±, + or ++ reactivity 9th [2]: 0 number of persons
- Number of subjects showing ±, + or ++ reactivity 9th [3]: 0 number of persons
- Average reactivity (0.5% by weight): 0
- Number of subjects showing ±, + or ++ reactivity 1st (1% by weight, line 1 of 3 (±)): 0 number of persons
- Number of subjects showing ±, + or ++ reactivity 1st (1% by weight, line 2 of 3 (+)): 0 number of persons
- Number of subjects showing ±, + or ++ reactivity 1st (1% by weight, line 3 of 3 (++)): 0 number of persons
- Number of subjects showing ±, + or ++ reactivity 2nd (1% by weight, line 1 of 3 (±)): 0 number of persons
- Number of subjects showing ±, + or ++ reactivity 2nd (1% by weight, line 2 of 3 (+)): 0 number of persons
- Number of subjects showing ±, + or ++ reactivity 2nd (1% by weight, line 3 of 3 (++)): 0 number of persons
- Number of subjects showing ±, + or ++ reactivity 3rd (1% by weight, line 1 of 3 (±)): 0 number of persons
- Number of subjects showing ±, + or ++ reactivity 3rd (1% by weight, line 2 of 3 (+)): 0 number of persons
- Number of subjects showing ±, + or ++ reactivity 3rd (1% by weight, line 3 of 3 (++)): 0 number of persons
- Number of subjects showing ±, + or ++ reactivity 4th (1% by weight, line 1 of 3 (±)): 0 number of persons
- Number of subjects showing ±, + or ++ reactivity 4th (1% by weight, line 2 of 3 (+)): 0 number of persons
- Number of subjects showing ±, + or ++ reactivity 4th (1% by weight, line 3 of 3 (++)): 0 number of persons
- Number of subjects showing ±, + or ++ reactivity 5th (1% by weight, line 1 of 3 (±)): 0 number of persons
- Number of subjects showing ±, + or ++ reactivity 5th (1% by weight, line 2 of 3 (+)): 0 number of persons
- Number of subjects showing ±, + or ++ reactivity 5th (1% by weight, line 3 of 3 (++)): 0 number of persons
- Number of subjects showing ±, + or ++ reactivity 6th (1% by weight, line 1 of 3 (±)): 0 number of persons
- Number of subjects showing ±, + or ++ reactivity 6th (1% by weight, line 2 of 3 (+)): 0 number of persons
- Number of subjects showing ±, + or ++ reactivity 6th (1% by weight, line 3 of 3 (++)): 0 number of persons
- Number of subjects showing ±, + or ++ reactivity 7th (1% by weight, line 1 of 3 (±)): 0 number of persons
- Number of subjects showing ±, + or ++ reactivity 7th (1% by weight, line 2 of 3 (+)): 0 number of persons
- Number of subjects showing ±, + or ++ reactivity 7th (1% by weight, line 3 of 3 (++)): 0 number of persons
- Number of subjects showing ±, + or ++ reactivity 8th (1% by weight, line 1 of 3 (±)): 0 number of persons
- Number of subjects showing ±, + or ++ reactivity 8th (1% by weight, line 2 of 3 (+)): 0 number of persons
- Number of subjects showing ±, + or ++ reactivity 8th (1% by weight, line 3 of 3 (++)): 0 number of persons
- Number of subjects showing ±, + or ++ reactivity 9th (1% by weight, line 1 of 3 (±)): 0 number of persons
- Number of subjects showing ±, + or ++ reactivity 9th (1% by weight, line 2 of 3 (+)): 0 number of persons
- Number of subjects showing ±, + or ++ reactivity 9th (1% by weight, line 3 of 3 (++)): 0 number of persons
- Average reactivity (1% by weight): 0
- Number of subjects showing ±, + or ++ reactivity 1st (3% by weight, line 1 of 3 (±)): 0 number of persons
- Number of subjects showing ±, + or ++ reactivity 1st (3% by weight, line 2 of 3 (+)): 0 number of persons
- Number of subjects showing ±, + or ++ reactivity 1st (3% by weight, line 3 of 3 (++)): 0 number of persons
- Number of subjects showing ±, + or ++ reactivity 2nd (3% by weight, line 1 of 3 (±)): 0 number of persons
- Number of subjects showing ±, + or ++ reactivity 2nd (3% by weight, line 2 of 3 (+)): 0 number of persons
- Number of subjects showing ±, + or ++ reactivity 2nd (3% by weight, line 3 of 3 (++)): 0 number of persons
- Number of subjects showing ±, + or ++ reactivity 3rd (3% by weight, line 1 of 3 (±)): 0 number of persons
- Number of subjects showing ±, + or ++ reactivity 3rd (3% by weight, line 2 of 3 (+)): 0 number of persons
- Number of subjects showing ±, + or ++ reactivity 3rd (3% by weight, line 3 of 3 (++)): 0 number of persons
- Number of subjects showing ±, + or ++ reactivity 4th (3% by weight, line 1 of 3 (±)): 0 number of persons
- Number of subjects showing ±, + or ++ reactivity 4th (3% by weight, line 2 of 3 (+)): 0 number of persons
- Number of subjects showing ±, + or ++ reactivity 4th (3% by weight, line 3 of 3 (++)): 0 number of persons
- Number of subjects showing ±, + or ++ reactivity 5th (3% by weight, line 1 of 3 (±)): 0 number of persons
- Number of subjects showing ±, + or ++ reactivity 5th (3% by weight, line 2 of 3 (+)): 0 number of persons
- Number of subjects showing ±, + or ++ reactivity 5th (3% by weight, line 3 of 3 (++)): 0 number of persons
- Number of subjects showing ±, + or ++ reactivity 6th (3% by weight, line 1 of 3 (±)): 0 number of persons
- Number of subjects showing ±, + or ++ reactivity 6th (3% by weight, line 2 of 3 (+)): 0 number of persons
- Number of subjects showing ±, + or ++ reactivity 6th (3% by weight, line 3 of 3 (++)): 0 number of persons
- Number of subjects showing ±, + or ++ reactivity 7th (3% by weight, line 1 of 3 (±)): 0 number of persons
- Number of subjects showing ±, + or ++ reactivity 7th (3% by weight, line 2 of 3 (+)): 0 number of persons
- Number of subjects showing ±, + or ++ reactivity 7th (3% by weight, line 3 of 3 (++)): 0 number of persons
- Number of subjects showing ±, + or ++ reactivity 8th (3% by weight, line 1 of 3 (±)): 0 number of persons
- Number of subjects showing ±, + or ++ reactivity 8th (3% by weight, line 2 of 3 (+)): 0 number of persons
- Number of subjects showing ±, + or ++ reactivity 8th (3% by weight, line 3 of 3 (++)): 0 number of persons
- Number of subjects showing ±, + or ++ reactivity 9th (3% by weight, line 1 of 3 (±)): 0 number of persons
- Number of subjects showing ±, + or ++ reactivity 9th (3% by weight, line 2 of 3 (+)): 0 number of persons
- Number of subjects showing ±, + or ++ reactivity 9th (3% by weight, line 3 of 3 (++)): 0 number of persons
- Average reactivity (3% by weight): 0
- skin reactivity (ICDRG criteria) (within the content range 0.5, 1, 3% by weight, 9 patches, 15 subjects): −
